As a reminder, the IC50 is the concentration needed to halve the response being measured.

For test [1], the target named is T1, CRTH2 (Homo sapiens, UniProt Q9Y5Y4).
T1 construct: endogenous in cells; host or cells: eosinophils in human whole blood
T1 sequence (Q9Y5Y4 1-395): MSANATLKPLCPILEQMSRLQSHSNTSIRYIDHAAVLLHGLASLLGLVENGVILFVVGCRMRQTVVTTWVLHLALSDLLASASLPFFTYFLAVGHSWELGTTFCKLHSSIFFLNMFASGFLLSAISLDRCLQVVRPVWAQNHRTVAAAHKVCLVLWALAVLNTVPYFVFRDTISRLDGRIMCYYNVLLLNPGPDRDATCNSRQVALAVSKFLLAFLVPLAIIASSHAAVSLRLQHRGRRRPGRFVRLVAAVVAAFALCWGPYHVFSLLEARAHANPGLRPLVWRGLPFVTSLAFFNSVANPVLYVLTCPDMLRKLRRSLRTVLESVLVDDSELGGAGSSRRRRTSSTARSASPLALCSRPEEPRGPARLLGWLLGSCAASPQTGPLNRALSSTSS
The test is described as follows: Human whole blood CD11b antagonist assay (CD11b expression in eosinophils challenged with 15-R-methyl-PGD2). Format: cell-based. The conditions noted are these: 37° C. 10 minutes preincubation, agonist 15R-Methyl-PGD2 10 nM, eosinophils gated by flow cytometry. As for the experimental part:
Human Whole Blood […] Antagonist Assay (Modified from Nicholson, et al. Pulmonary Pharmacology and Therapeutics: 20 (2007); 52-59).
The potential CRTH2 antagonist activity of certain compounds was tested in human whole blood using an assay that tests the ability of the compounds to block the CD11b expression in eosinophils by 15-R-methyl-PGD2. A CRTH2 antagonist should block CD11b expression by subsequently added 15-Methyl-PGD2. Human whole blood (200 μL) was incubated at 37° C. for 10 minutes in the presence of various concentrations of test compounds before being challenged with the agonist 1-5R-Methyl-PGD2 (10 nM). Reactions were terminated by the addition of ice-cold PBS+0.5% BSA+2 mM EDTA (1 mL) and centrifugation (300×g for 5 minutes at 4° C.) Cells were then incubated at 4° C. for 10 min in the presence of human IgG. Cells were then incubated for 30-45 min with a mixture of PE-Cy5-labeled mouse anti-human CD16 (10 ul; BD Biosciences) and FITC-labeled mouse anti-human CD11b (10 μL; Beckman Coulter.) After rinsing (1 mL ice-cold PBS+0.5% BSA+2 mM EDTA), red blood cells were lysed by the addition of 1 mL ice-cold H2O to the cell pellet for 30 sec-1 min immediately followed by the addition of 3.5% NaCl (300 μL.) Cells were then rinsed (2×−1 ml ice cold PBS+0.5% BSA+2m MEDTA) and fixed in PBS containing 1% formaldehyde. The distribution of fluorescence intensities was measured by flow cytometry. Eosinophils were gated out on the basis of their granularity (high side scatter) and absence of CD-16. CD11b was then measured on this eosinophil population on the basis of fluorescence due to FITC.

For test [2], the target named is T1, CRTH2. In words: DPBS CD11b antagonist assay (CD11b expression in eosinophils challenged with 15R-Methyl-PGD2). The test is classed as cell-based. The note with it: polymorphonuclear cells in PBS with CaCl2/MgCl2; agonist 15R-Methyl-PGD2 10 nM; eosinophils gated by flow cytometry. As for the experimental part:
DPBS CD111b Antagonist Assay.
The potential CRTH2 antagonist, activity of certain compounds was tested using a CD11b expression assay using essentially the method described by Monneret et al. (J Pharmacol Exp Ther 304:349-55, 2003). Briefly, polymorphonuclear cells (0.5 ml; 10^6/ml cells) in PBS containing 0.9 mM CaCl2 and 0.5 mM MgCl2) were preincubated with various concentrations of test compounds at room temperature for 10 minutes before they were challenged with the agonist 15R-Methyl-PGD2 (10 nM). The incubations were terminated by the addition of ice-cold FACSFlow (BD Biosciences; Cat#342003) and centrifugation (400 g for 5 minutes at 4° C.). The cells were then incubated for 30 minutes at 4° C. with a mixture of PE-labeled mouse anti-human VLA-4 (5 μl; BD Biosciences) and FITC-labeled mouse anti-human CD11b (10 μl; Beckman Coulter). The cells were then incubated with Optilyse C (0.25 ml; Beckman Coulter) for 15 minutes, centrifuged, and then fixed in PBS (0.4 ml; calcium and magnesium free) containing 1% formaldehyde. The distribution of fluorescence intensities among 60,000 cells was measured by flow cytometry. Eosinophils were gated out on the basis of their granularity (high side scatter) and labeling with VLA-4 (PE fluorescence). CD11b was then measured in the eosinophil region on the basis of fluorescence due to FITC. All data were corrected for the value obtained for the corresponding isotope control antibody.
(In general: Flow cytometry measures light scatter and fluorescence of single cells or particles in a stream.)

As for `CCOC(=O)Cn1c(C)c(Cc2cccnc2S(=O)(=O)c2ccc(C(F)(F)F)cc2)c2c1CC(C)(C)CC2=O` [Compound I-10, Ethyl 2-(2,6,6-trimethyl-4-oxo-3-((2-(4-(trifluoromethyl)phenylsulfonyl)pyridin-3-yl)methyl)-4,5,6,7-tetrahydro-1H-indol-1-yl)acetate], the half-maximal inhibitory concentration (IC50) on CRTH2 [1] lay in the range of 100 to 500 nM; at CRTH2 [2], 1 to 5 nM.
In the case of `CCN(c1ccccc1Cc1c2c(n(CC(=O)O)c1C)CC(C)(C)CC2=O)S(=O)(=O)c1ccc(C)cc1` [Compound I-38, 2-(3-(2-(N-Ethyl-4-methylphenylsulfonamido)benzyl)-2,6,6-trimethyl-4-oxo-4,5,6,7-tetrahydro-1H-indol-1-yl)acetic acid], the half-maximal inhibitory concentration (IC50) fell in the range of 500 to 3000 nM at CRTH2 [1] and 1 to 5 nM at CRTH2 [2].
For the compound `Cc1c(Cc2ccccc2N(C)S(=O)(=O)c2ccc(C(C)C)cc2)c2c(n1CC(=O)O)CC(C)(C)CC2=O` [Compound I-34, 2-(3-(2-(4-Isopropyl-N-methylphenylsulfonamido)benzyl)-2,6,6-trimethyl-4-oxo-4,5,6,7-tetrahydro-1H-indol-1-yl)acetic acid], the 50% inhibitory concentration (IC50) on CRTH2 [1] was in the range of 500 to 3000 nM; on CRTH2 [2] it was 5 to 20 nM.
Turning to `Cc1c(Cc2cccnc2S(=O)(=O)C2CC2)c2c(n1CC(=O)O)CC(C)(C)CC2=O` [Compound I-4, 2-(3-((2-(cyclopropylsulfonyl)pyridin-3-yl)methyl)-2,6,6-trimethyl-4-oxo-4,5,6,7-tetrahydro-1H-indol-1-yl)acetic acid], the IC50 on CRTH2 [1] and on CRTH2 [2] was 100 to 500 nM throughout.
`Cc1c(Cc2cc3ccccc3n2S(=O)(=O)N2CCOCC2)c2c(n1CC(=O)O)CC(C)(C)CC2=O` [Compound I-37]: the half-inhibitory concentration (IC50) at CRTH2 [1] was 20 to 100 nM; at CRTH2 [2], below 1 nM.
Taken in the same sequence, the figures for `Cc1c(Cc2sccc2S(=O)(=O)c2ccccc2)c2c(n1CC(=O)O)CC(C)(C)CC2=O` [Compound I-42] were below 1 nM and below 1 nM.
On to `Cc1c(Cc2ccccc2S(=O)(=O)N2CCOCC2)c2c(n1CC(=O)O)CCNC2=O` [Compound I-50, 2-(2-Methyl-3-(2-(morpholinosulfonyl)benzyl)-4-oxo-4,5,6,7-tetrahydro-1H-pyrrolo[3,2-c]pyridin-1-yl)acetic acid], for which the results for the IC50 on CRTH2 [1] and on CRTH2 [2] were 1 to 5 nM and below 1 nM, respectively.
Regarding `Cc1ccc(S(=O)(=O)N(C)c2ccccc2Cc2c3c(n(CC(=O)O)c2C)CC(C)(C)CC3=O)cc1` [Compound I-33, 2-(3-(2-(N,4-dimethylphenylsulfonamido)benzyl)-2,6,6-trimethyl-4-oxo-4,5,6,7-tetrahydro-1H-indol-1-yl)acetic acid], the results for the IC50 at CRTH2 [1] and at CRTH2 [2] were 100 to 500 nM and 1 to 5 nM, respectively.
Taken in the same sequence, the figures for `CCOC(=O)N1CCN(S(=O)(=O)c2ccc(Cc3c4c(n(CC(=O)O)c3C)CCOC4)cc2)CC1` [Compound I-2, 2-(3-(4-(4-(Ethoxycarbonyl)piperazin-1-ylsulfonyl)benzyl)-2-methyl-6,7-dihydropyrano[4,3-b]pyrrol-1(4H)-yl)acetic acid] were 100 to 500 nM and 1 to 5 nM.
Taken in the same sequence, the figures for `COc1ccc(S(=O)(=O)c2ncccc2Cc2c3c(n(CC(=O)O)c2C)CC(C)(C)CC3=O)cc1F` [Compound I-21, 2-(3-((2-(3-Fluoro-4-methoxyphenylsulfonyl)pyridin-3-yl)methyl)-2,6,6-trimethyl-4-oxo-4,5,6,7-tetrahydro-1H-indol-1-yl)acetic acid] were 20 to 100 nM and below 1 nM.
In the same order, the values of `Cc1ccc(S(=O)(=O)Nc2ccccc2Cc2c3c(n(CC(=O)O)c2C)CC(C)(C)CC3=O)cc1` [Compound I-23, 2-(2,6,6-Trimethyl-3-(2-(4-methylphenylsulfonamido)benzyl)-4-oxo-4,5,6,7-tetrahydro-1H-indol-1-yl)acetic acid] are 1 to 5 nM and below 1 nM.
Consider `Cc1c(Cc2ccccc2S(=O)(=O)N2CCCC2)c2c(n1CC(=O)O)CCNC2=O` [Compound I-39, 2-(2-Methyl-4-oxo-3-(2-(pyrrolidin-1-ylsulfonyl)benzyl)-4,5,6,7-tetrahydro-1H-pyrrolo[3,2-c]pyridin-1-yl)acetic acid], for which the results for the IC50 at CRTH2 [1] and at CRTH2 [2] were 5 to 20 nM and below 1 nM, respectively.
